The nature of assay [1]: Antitumor activity was evaluated by the total growth inhibition of Thyroid ca SW 1736 cells; Active. In kind it is functional. The conditions noted are these: Homo sapiens, SW-1736, read-out: TGI50.
Assay [2] is described as follows: Antitumor activity was evaluated by the lethal concentration of Pancreas-a BXPC-3 cells; Active. In kind it is functional. The note with it: Homo sapiens, read-out: LC50 (the source's name).
Assay [3] in a line: Antitumor activity was evaluated by the total growth inhibition of Lung-NSC NCI-H460 cells; Active. Format: functional. The conditions noted are these: Homo sapiens, NCI-H460, read-out: TGI50.
A short description of assay [4]: Antitumor activity was evaluated by the total growth inhibition of Pancreas-a BXPC-3 cells; Active. Format: functional. The note with it: Homo sapiens, BXPC-3, read-out: TGI50.
Assay [5] can be described thus: Antitumor activity was evaluated by the total growth inhibition of Prostate DU-145 cells; Active. In kind it is functional. The note with it: Homo sapiens, DU-145, read-out: TGI50.
Assay [6] is described as follows: Antitumor activity was evaluated by the lethal concentration of Prostate DU-145 cells; Active. Format: functional. The note with it: Homo sapiens, read-out: LC50 (the source's name).
The species entered for assay [7] is Homo sapiens. Put plainly: Antitumor activity was evaluated by the growth inhibition of Pharynx-sq FADU cells; Active. In kind it is functional.
The nature of assay [8]: Antitumor activity was evaluated by the growth inhibition of Thyroid ca KAT-4 cells; Active. In kind it is functional. The conditions noted are these: Homo sapiens.
The nature of assay [9]: Antitumor activity was evaluated by the lethal concentration of Thyroid ca KAT-4 cells; Active. In kind it is functional. The note with it: Homo sapiens, read-out: LC50 (the source's name).
The nature of assay [10]: Antitumor activity was evaluated by the growth inhibition of Prostate DU-145 cells; Active. The conditions noted are these: Homo sapiens. Format: functional.
The nature of assay [11]: Antitumor activity was evaluated by the total growth inhibition of Thyroid ca KAT-4 cells; Active. In kind it is functional. The conditions noted are these: Homo sapiens, KAT-4, read-out: TGI50.
Assay [12] is described as follows: Antitumor activity was evaluated by the lethal concentration of Lung-NSC NCI-H460 cells; Active. In kind it is functional. The conditions noted are these: Homo sapiens, read-out: LC50 (the source's name).
Assay [13] in a line: Antitumor activity was evaluated by the growth inhibition of Pancreas-a BXPC-3 cells; Active. In kind it is functional. The conditions noted are these: Homo sapiens.
The species named for assay [14] is Homo sapiens. Put plainly: Antitumor activity was evaluated by the lethal concentration of Pharynx-sq FADU cells; Active. The note with it: read-out: LC50 (the source's name). In kind it is functional.
Assay [15] in a line: Antitumor activity was evaluated by the lethal concentration of Thyroid ca SW 1736 cells; Active. The note with it: Homo sapiens, read-out: LC50 (the source's name). Format: functional.
The species entered for assay [16] is Homo sapiens. Put plainly: Antitumor activity was evaluated by the total growth inhibition of Pharynx-sq FADU cells; Active. In kind it is functional. The conditions noted are these: read-out: TGI50.
Assay [17] can be described thus: Antitumor activity was evaluated by the growth inhibition of Lung-NSC NCI-H460 cells; Active. Format: functional. The note with it: Homo sapiens.
Assay [18] in a line: Antitumor activity was evaluated by the growth inhibition of Thyroid ca SW 1736 cells; Active. Format: functional. The note with it: Homo sapiens.
The test system of assay [19] is BXPC-3. Put plainly: Antitumor activity against Pancreas-a BXPC-3 cells was evaluated; No biological activity. In kind it is functional, cell-based. The note with it: Homo sapiens.
For assay [20], the system named is SW 1736. Put plainly: Antitumor activity against Thyroid ca SW 1736 cells was evaluated; No biological activity. Format: functional, cell-based. The conditions noted are these: Homo sapiens.
Assay [21] deals with NCI-H460. Put plainly: Antitumor activity against Lung-NSC NCI-H460 cells was evaluated; No biological activity. In kind it is functional, cell-based. The note with it: Homo sapiens.
The subject of assay [22] is DU-145. Put plainly: Antitumor activity against Prostate DU-145 cells was evaluated; No biological activity. Format: functional, cell-based. The conditions noted are these: Homo sapiens.
The species named for assay [23] is Homo sapiens. Put plainly: Antitumor activity against Pharynx-sq FADU cells was evaluated; No biological activity. In kind it is functional.
For assay [24], the system named is KAT-4. Put plainly: Antitumor activity against Thyroid ca KAT-4 cells was evaluated; No biological activity. The conditions noted are these: Homo sapiens. In kind it is functional, cell-based.

Converted amounts (≈) assume the structure as drawn. The source made the active and inactive calls. The calls are words filed in the database; no cut-off is given here.

As for `C[C@@H]1[C@@H](O)[C@H](O)C(=O)O[C@H]1[C@H]1COC(C)(C)O1`, the GI50 in assay [1] was above 10 µg/mL; in [3] it was above 10 µg/mL; in assay [4], above 10 µg/mL; in assay [5], above 10 µg/mL; in [7], 3.7 µg/mL (≈ 15 µM); in [8], above 10 µg/mL. In addition, the GI50 in assay [10] was 2.7 µg/mL (≈ 11 µM); in assay [11] it was above 10 µg/mL; in assay [13] it was above 10 µg/mL; in assay [16], above 10 µg/mL; in [17] it was 2.9 µg/mL (≈ 11.8 µM); in assay [18], 8.5 µg/mL (≈ 34.5 µM). Further, the CC50 in assay [2], in assay [6], in assay [9], in assay [12], in [14] and in assay [15] was above 10000 µg/mL throughout.
`C[C@H]1C(COCc2ccccc2)OC(=O)[C@@H](O)[C@@H]1O` (some centres undefined): the outcome in assay [19], in assay [20], in assay [21], in assay [22], in assay [23] and in [24] was inactive.

Values taken from ChEMBL document CHEMBL1130857, “Synthesis and biological activity of lactones en route to Altohyrtin A” (1998).
